The values below come from patent US6827926B2, “Metallotetrapyrrolic photosensitizing agents for use in photodynamic therapy” (Miravant Pharmaceuticals, Inc., priority 2001, dated 2004).

Data set [1] has as its system V79 (Chinese Hamster Lung Fibroblasts) cells. As to the kind of experiment: In vitro cytotoxicity assay (light EC50, Alamar blue). In kind it is cell-based. In outline: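 V79 cells in phenol-free 5% FBS/DMEM exposed 24 h to photosensitizer at final 0.01–5.0 μM, six replicates, then washed and light-treated, with a dark plate as control. Survival by Alamar blue after 24 h dark incubation, read at 570/600 nm.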

The subject of data set [2] is normal skin of CD Hairless male rats. The class given is in vivo, rat. The source says:
We tested metallo- and metal-free tetrapyrroles systemically (see following section) for normal skin response in relation to the pharmacodynamic distribution of the photosensitizers in CD hairless rats. The skin of CD hairless rats are poorly developed, often referred to as hyperkeratotic, with various sized cystic hair follicles containing concentric lamellar accumulations of keratinaceous material, which are often associated with enlarged sebaceous glands. It quickly became apparent that gallium tetrapyrroles induced a marked clearing of the hyperkeratotic lesions in the treatment areas on the hairless rats. In fact, this clearing could be induced without necrosis of the skin. No other metallotetrapyrrole type produced such effects. This observation led us to assess the metallotetrapyrrolic compounds for skin restructuring effects both topically and systemically and for their ability to reduce hair growth in the following animal models.
Photosensitizer normal skin response as well as skin healing response, was evaluated using CD Hairless male rats. Photosensitizers were administered in an liposomal egg yolk phospholipid formulation at 1, 1.5 and 2 μmol/kg body weight formulation per dose group as a single bolus intravenous injection given through a marginal tail vein using a 27 gauge needle and a 1 cc tuberculin syringe. Normal skin responses were evaluated by irradiating several spots on the skin of the rat with a 532 nm laser (150 mW/cm^2, 150J, 1 cm diameter) at 1, 6, 24, 48, and 96 hrs post injection. Normal skin responses were evaluated and documented. The time at which the last spot is observed at the concentration injected is reported in the far right hand column in Tables 3, 4, 5 and 6. Skin samples were taken for histological evaluation at days 1, 10, 20 and 22 post light treatment. Rats were housed under normal lighting and all study procedures involving the test article were conducted under light filtered through blue and green Roscolox light filters to prevent photoactivation or degradation of the drug.

The test system of data set [3] is normal uninjured rat carotid arteries (medial and adventitial cell populations). As to the kind of experiment: In vivo rat carotid artery acellularity after PDT. More on the design: species or system Sprague Dawley rats. Particulars: for Max % rat Artery Accelularity: Table 3, 50 J/cm^2, 3 days post treatment; for Max % Rat Artery Accelularity: Table 4. The method, then:
The acute effects of metallated photosensitizers, in response to light activation, to cause depletion of cell populations in the medial and adventitial layers of vessels was measured in normal uninjured rat carotid arteries. […] Shortly before the light treatment, the rats were anaesthetized with 3.5% isoflurane (Abbott Laboratories, IL, USA) and the femoral region of the right leg was shaved and cleaned. […] A direct arteriotomy was performed and a light balloon catheter ([…] Medical Technologies, Inc) was introduced into the vessel and advanced retrogradely into a non-manipulated region of the left common carotid artery via the abdominal aorta. […] After light treatment and removal of the catheter, the right femoral artery was tied off and the skin wound was closed. Rats were sacrificed three days post treatment as this corresponds to the known peak time that vascular cells, e.g., VSMC and myofibroblasts, proliferate and migrate in response to an injury. The area spanning both left and right carotid arteries and surrounding tissue was harvested, fixed, embedded in paraffin and sectioned. The tissues were stained with Hematoxylin and Eosin (Fisher Scientific, PA) and examined by light microscopy to histologically assess the cell population density in the medial and adventitial layers of the PDT-treated vessel wall. […] Metallo azaporphyrins with Ga, Zn, Al, Sn were excited at 575 nm, while Pt azaporphyrins were excited at 532 nm.

[4] abbreviates: Table 3 porphyrins, 24 h drug incubation, 532 nm, 1.25 J/cm^2, read-out: In Vitro EC50 Light.
[5] abbreviates: Table 4 azaporphyrins, 575 nm (Pt azaporphyrins 532 nm), 1.25 J/cm^2, read-out: In Vitro EC(50).
Setting [6] is: drug dose 1 μMol, 575 nm (Pt 532 nm).
[7] abbreviates: Table 3, time of last skin spot observed post injection, 1 μmol, 532 nm laser.

Molecules are shown by their SMILES. Read-outs that look alike come from different tables or passages of the source.

As for `CCC1=C(C)C2=[N+]3C1=Cc1c(C)c(CC)c4[n]1[Ga-2]31([Cl])[n]3c(c(C)c(CCC(=O)NCCOC)c3=CC3=[N+]1C(=C4)C(C)=C3CCC(=O)NCCOC)=C2` [Example 11, Gallium Chloride Mesoporphyrin di-(2′-methoxyethyl amide)], the EC50 in data set [1] (setting [4]) worked out at 1900 nM. Further, in data set [2] (rat, in vivo), the “Normal skin Response (1 μmol)” value worked out at 6 h. Further, the “Max % rat Artery Accelularity” value in data set [3] (drug dose 1 μMol) is given as 30%.

For `COC(=O)CCC1=C(C)c2cc3[n-]c(cc4nc(cc5[n-]c(cc1n2)c(CCC(=O)OC)c5C)C(CN(C)C)=C4C)c(CN(C)C)c3C.[Ga+3].[OH-]` [Example 12, Gallium Hydroxy 3,8-N,N-dimethylaminomethyl deuteroporphyrin dimethyl ester], the EC50 in data set [1] (setting [4]) turned out to be 500 nM. In addition, the “Normal skin Response (1 μmol) in hrs” value in data set [2] (rat, in vivo) is “None”. In addition, the “Max % rat Artery Accelularity” value in data set [3] (drug dose 1 μMol) came to 50%.

Consider `C=Cc1c(C)c2cc3nc(c(CC(=O)OC)c4[n-]c(cc5nc(cc1[n-]2)C(C)=C5CC)c(C)c4C(=O)NC)C(CCC(=O)OC)=C3C.[Cl-].[Ga+3]` [Example 14, Gallium Chloride Chloroporphyrin e6 Dimethyl Ester 12-methylamide], for which the EC50 in data set [1] (Table 5 plant derived gallium porphyrins, light, read-out: In Vitro EC(50)) is 290 nM. The same compound yielded a Normal skin Response (1 μmol) in data set [2] (rat, in vivo) of 6 h. Besides, in data set [3] (Table 5, drug dose 1 μMol), the “Max % Rat Artery Acceluarity” value is 65%.

On to `CCC1=C(C)C2=[N+]3C1=Cc1c(C)c(CC)c4[n]1[Ga-2]31([Cl])[n]3c(c(C)c(CCC(=O)N(CC)CC)c3=CC3=[N+]1C(=C4)C(C)=C3CCC(=O)N(CC)CC)=C2` [Example 15, Gallium Chloride Mesoporphyrin N,N-diethylamide], for which, in data set [1] (setting [4]), the EC50 came to 450 nM. Also, the “Normal skin Response (1 μmol)” value in data set [2] (rat, in vivo) was determined as 96 h. In addition, in data set [3] (drug dose 1 μMol), the “Max % rat Artery Accelularity” value was 60%.

On to `C=CC1=C(C)c2nc1cc1[n-]c(cc3nc(cc4[n-]c(n2)c(C)c4CCC(=O)OC)C(CCC(=O)OC)=C3C)c(C=C)c1C.[Cl-].[Ga+3]` [Example 19, Gallium Chloride 5-azaprotoporphyrin IX Dimethyl Ester], for which the EC50 in data set [1] (setting [5]) came to 400 nM. Further, in data set [2] (Table 4, time of last skin spot observed post injection, 1 μmol), the “Normal skin Response (1 μmol)” value is 24 h. Also, the “Max % Rat Artery Accelularity” value in data set [3] (setting [6]) came out at 55%.

On to `CCC1=C(CC)C2=[N+]3C1=Nc1c(CC)c(CC)c4[n]1[Ga-2]31([Cl])[n]3c(c(C)c(CCC(=O)OC)c3=CC3=[N+]1C(=C4)C(C)=C3CCC(=O)OC)=C2` [Example 21, Gallium Chloride 7,8,12,13-tetraethyl-12,17-dimethyl-10-azaporphyrin-2,18-di(propionic acid methyl ester)], for which, in data set [1] (setting [5]), the EC50 was determined as 400 nM. Further, the “Normal skin Response (1 μmol)” value in data set [2] (rat, in vivo) was 24 h. Further, in data set [3] (setting [6]), the “Max % Rat Artery Accelularity” value was found to be 60%.

Turning to `CCC1=C(CC)C2=[N+]3C1=Nc1c(CC)c(CC)c4[n]1[Ga-2]31([Cl])[n]3c(c(C)c(CCC(=O)NC)c3=CC3=[N+]1C(=C4)C(C)=C3CCC(=O)NC)=C2` [Example 22, Gallium Chloride 7,8,12,13-tetraethyl-12,17-dimethyl-10-azaporphyrin-2,18-di(propionic acid methyl amide)], the EC50 in data set [1] (setting [5]) amounted to 450 nM. Moreover, the “Normal skin Response (1 μmol)” value in data set [2] (rat, in vivo) worked out at 48 h. Also, the “Max % Rat Artery Accelularity” value in data set [3] (drug dose 0.5 μMol) is given as 50%.

With `CCOC(=O)CCCCC1=C(C)c2cc3[n-]c(cc4nc(cc5[n-]c(cc1n2)c(CCCCC(=O)OCC)c5C)C(C)=C4CC)c(C)c3CC.[Cl-].[Ga+3]` [Example 28, Gallium Chloride 8,13-diethyl-3,7,12,17-tetramethylporphyrin-2,18-di(pentanoic acid ethyl ester)], the EC50 in data set [1] (setting [4]) came to 400 nM. For the same compound, in data set [2] (rat, in vivo), the “Normal skin Response (1 μmol)” value was 6 h. Moreover, the “Max % rat Artery Accelularity” value in data set [3] (drug dose 1 μMol) amounted to 80%.

In the case of `CCC1=C(C)c2cc3[n-]c(cc4nc(cc5[n-]c(cc1n2)c(C)c5CCC(=O)OC)C(CCC(=O)OC)=C4C)c(C)c3CC.[Cl-].[In+3]` [Example 31, Indium Chloride Mesoporphyrin Dimethyl Ester], the EC50 in data set [1] (setting [4]) was determined as 70 nM. For the same compound, the “Normal skin Response (1 μmol)” value in data set [2] (rat, in vivo) was 96 h. Further, the “Max % rat Artery Accelularity” value in data set [3] (drug dose 1 μMol) is on record as 90%.

As for `CCC1=C(C)c2cc3[n-]c(cc4nc(cc5[n-]c(cc1n2)c(C)c5CCC(=O)OCCF)C(CCC(=O)OCCF)=C4C)c(C)c3CC.[Cl-].[Ga+3]` [Example 34, Gallium Chloride Mesoporphyrin di (2-fluoroethylester)], the EC50 in data set [1] (setting [4]) was 400 nM. Moreover, the “Normal skin Response (1 μmol)” value in data set [2] (rat, in vivo) came to 24 h. In addition, in data set [3] (drug dose 1 μMol), the “Max % rat Artery Accelularity” value is recorded as 80%.

As to `CCC1=C(C)c2cc3[n-]c(cc4nc(cc5[n-]c(cc1n2)c(C)c5CC)C(C)=C4CCC(=O)OCCCCl)c(CCC(=O)OCCCCl)c3C.[Cl-].[Ga+3]` [Example 35, Gallium Chloride Mesoporphyrin di (3-chloropropylester)], the EC50 in data set [1] (setting [4]) turned out to be 400 nM. Moreover, the “Normal skin Response (1 μmol)” value in data set [2] (rat, in vivo) was determined as 96 h. Further, in data set [3] (drug dose 1 μMol), the “Max % rat Artery Accelularity” value was determined as 80%.

`CC1=Cc2cc3[n-]c(cc4nc(cc5[n-]c(cc1n2)cc5C)C(C)=C4CCC(=O)OCCCCl)c(CCC(=O)OCCCCl)c3C.[Cl-].[Ga+3]` [Example 36, Gallium Chloride Deuteroporphyrin di (3-chloropropylester)]: the EC50 in data set [1] (setting [4]) turned out to be 400 nM. Also, the “Normal skin Response (1 μmol)” value in data set [2] (rat, in vivo) is 96 h. Moreover, the “Max % rat Artery Accelularity” value in data set [3] (drug dose 1 μMol) is 80%.

`CC1=Cc2cc3[n-]c(cc4nc(cc5[n-]c(cc1n2)cc5C)C(C)=C4CCC(=O)OCCF)c(CCC(=O)OCCF)c3C.[Cl-].[Ga+3]` [Example 37, Gallium Chloride Deuteroporphyrin di (2-fluoroethylester)]: in data set [1] (setting [4]), the EC50 amounted to 400 nM. The “Normal skin Response (1 μmol)” value in data set [2] (setting [7]) is 48 h. Also, in data set [3] (drug dose 1 μMol), the “Max % rat Artery Accelularity” value is recorded as 80%.

`CC1=Cc2cc3[n-]c(cc4nc(cc5[n-]c(cc1n2)c(C)c5CCC(=O)OCC(F)(F)F)C(CCC(=O)OCC(F)(F)F)=C4C)cc3C.[Cl-].[Ga+3]` [Example 38, Gallium Chloride Deuteroporphyrin di (2,2,2-trifluoroethylester)]: in data set [1] (setting [4]), the EC50 was found to be 400 nM. Moreover, the “Normal skin Response (1 μmol)” value in data set [2] (rat, in vivo) came to 24 h. The “Max % rat Artery Accelularity” value in data set [3] (drug dose 1 μMol) was 80%.

`COC(=O)CCC1=C(C)c2cc3[n-]c(cc4nc(cc5[n-]c(cc1n2)c(CCC(=O)OC)c5C)C(Br)=C4C)c(Br)c3C.[Cl-].[Ga+3]` [Example 39, Gallium Chloride 3,8-dibromodeuteroporphyrin dimethyl ester]: the EC50 in data set [1] (setting [4]) stood at 400 nM. The “Normal skin Response (1 μmol)” value in data set [2] (rat, in vivo) is 6 h. In addition, in data set [3] (drug dose 1 μMol), the “Max % rat Artery Accelularity” value was 75%.

For `COC(=O)CCC1=C(C)c2cc3[n-]c(cc4nc(cc5[n-]c(cc1n2)c(CCC(=O)OC)c5C)C(CO)=C4C)c(CO)c3C.[Cl-].[Ga+3]` [Example 40, Gallium Chloride 3,8-hydroxymethyl deuteroporphyrin dimethyl ester], in data set [1] (setting [4]), the EC50 was 600 nM. For the same compound, the “Normal skin Response (1 μmol)” value in data set [2] (setting [7]) came out at 6 h. The “Max % rat Artery Accelularity” value in data set [3] (drug dose 1 μMol) was 5%.

Consider `COC(=O)CCC1=C(C)C2=Cc3c(C)c(CN(C)C)c4[n]3[Pt][n]3c(c(C)c(CCC(=O)OC)c3=CC1=N2)=CC1=NC(=C4)C(C)=C1CN(C)C` [Example 41, Platinum 3,8-Bis(dimethylaminomethyl) deuteroporphyrin dimethyl ester], for which the EC50 in data set [1] (setting [4]) is 200 nM. The “Normal skin Response (1 μmol)” value in data set [2] (rat, in vivo) stood at 48 h. Further, the “Max % rat Artery Accelularity” value in data set [3] (drug dose 1 μMol) is 0%.
